According to PubChem BioAssay AID1963856 (Molecular Pharmacology Branch, DTP, NCI, 2024):

System: LG0567-F671-PDC KRAS tumor spheroid viability
Assay: Anticancer human tumor LG0567-F671-PDC patient-derived lung adenocarcinoma cell line growth inhibition [KRAS2]
Conditions: spheroids with HUVEC and MSC; for IC50: curve of first compound; for viability, T/C: stronger effect = lower value
Summary of the method: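 KRAS-mutant tumor cells were grown as spheroids with HUVEC endothelial cells and human MSCs as stroma. Targeted agents were tested alone and with KRAS pathway inhibitors. Doses started at or near clinical Cmax, or 10 microM, descending half-log.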

[1] = second compound 0.0316 µM, first compound 0.01 µM
[2] = second compound 0.0316 µM, first compound 0.0316 µM
[3] = second compound 0.0316 µM, first compound 0.1 µM
[4] = second compound 0.0316 µM, first compound 0.316 µM
[5] = second compound 0.0316 µM, first compound 1 µM
[6] = second compound 0.0316 µM, first compound 3.16 µM
[7] = second compound 0.1 µM, first compound 0.01 µM
[8] = second compound 0.1 µM, first compound 0.0316 µM
[9] = second compound 0.1 µM, first compound 0.1 µM
[10] = second compound 0.1 µM, first compound 0.316 µM
[11] = second compound 0.1 µM, first compound 1 µM
[12] = second compound 0.1 µM, first compound 3.16 µM
[13] = second compound 0.316 µM, first compound 0.01 µM
[14] = second compound 0.316 µM, first compound 0.0316 µM
[15] = second compound 0.316 µM, first compound 0.1 µM
[16] = second compound 0.316 µM, first compound 0.316 µM
[17] = second compound 0.316 µM, first compound 1 µM
[18] = second compound 0.316 µM, first compound 3.16 µM
[19] = second compound 1 µM, first compound 0.01 µM
[20] = second compound 1 µM, first compound 0.0316 µM
[21] = second compound 1 µM, first compound 0.1 µM
[22] = second compound 1 µM, first compound 0.316 µM
[23] = second compound 1 µM, first compound 1 µM
[24] = second compound 1 µM, first compound 3.16 µM
[25] = second compound 3.16 µM, first compound 0.01 µM
[26] = second compound 3.16 µM, first compound 0.0316 µM
[27] = second compound 3.16 µM, first compound 0.1 µM
[28] = second compound 3.16 µM, first compound 0.316 µM
[29] = second compound 3.16 µM, first compound 1 µM
[30] = second compound 3.16 µM, first compound 3.16 µM
[31] = second compound 0.0316 µM, first compound 10 µM
[32] = second compound 0.1 µM, first compound 10 µM
[33] = second compound 0.316 µM, first compound 10 µM
[34] = second compound 1 µM, first compound 10 µM
[35] = second compound 3.16 µM, first compound 10 µM
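Further: drug exposure lasted seven days after spheroids formed for three days.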
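Wherever viability, T/C is given: 100% = DMSO vehicle control viability.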

Compound | IC50 (second compound 0.0316 µM) | IC50 (second compound 0.1 µM) | IC50 (second compound 0.316 µM) | IC50 (second compound 1 µM) | IC50 (second compound 3.16 µM) | viability, T/C [2] | viability, T/C [3] | viability, T/C [4] | viability, T/C [5] | viability, T/C [8] | viability, T/C [9] | viability, T/C [10] | viability, T/C [11] | viability, T/C [14] | viability, T/C [15] | viability, T/C [16] | viability, T/C [17] | viability, T/C [20] | viability, T/C [21] | viability, T/C [22] | other results
CC1COCCN1c1cc(-c2ccnn2C)c2ccnc(-c3ccn[nH]3)c2n1 (stereo not given) + C=CC(=O)N1CCN(c2nc(OCC3CCCN3C)nc3c2CCN(c2cccc4cccc(C)c24)C3)CC1CC#N | < 10 nM | < 10 nM | < 10 nM | < 10 nM | < 10 nM | 23.5% | 17.1% | 15.6% | 14.1% | 21.2% | 17.4% | 12.7% | 10.8% | 19.4% | 15.6% | 11.3% | 12.1% | 21.4% | 16.7% | 13.9% | viability, T/C [1]: 33.7%; viability, T/C [6]: 12.7%; viability, T/C [7]: 26.9%; viability, T/C [12]: 10.4%; viability, T/C [13]: 24.7%; viability, T/C [18]: 10.7%; viability, T/C [19]: 26.8%; viability, T/C [23]: 13.9%; viability, T/C [24]: 13.7%; viability, T/C [25]: 26.2%; viability, T/C [26]: 22.6%; viability, T/C [27]: 20.8%; viability, T/C [28]: 17.3%; viability, T/C [29]: 13.3%; viability, T/C [30]: 12.2%
CC1OCC2(CCN(c3cnc(Sc4ccnc(N)c4Cl)c(N)n3)CC2)C1N (stereo not given) + C=CC(=O)N1CCN(c2nc(OCC3CCCN3C)nc3c2CCN(c2cccc4cccc(C)c24)C3)CC1CC#N | < 31.6 nM | < 31.6 nM | < 31.6 nM | < 31.6 nM | < 31.6 nM | 28.3% | 18.1% | 16.3% | 11.3% | 24.7% | 14.6% | 13.5% | 7.14% | 26.3% | 17.8% | 12.3% | 10% | 20.1% | 15.6% | 11.5% | viability, T/C [6]: 5.27%; viability, T/C [31]: 4.04%; viability, T/C [12]: 3.83%; viability, T/C [32]: 4.19%; viability, T/C [18]: 5.4%; viability, T/C [33]: 3.32%; viability, T/C [23]: 7.73%; viability, T/C [24]: 5.45%; viability, T/C [34]: 6.7%; viability, T/C [26]: 29.1%; viability, T/C [27]: 21.1%; viability, T/C [28]: 17.2%; viability, T/C [29]: 8.14%; viability, T/C [30]: 5.63%; viability, T/C [35]: 4.39%
CCN1CCN(Cc2ccc(Nc3ncc(F)c(-c4cc(F)c5nc(C)n(C(C)C)c5c4)n3)nc2)CC1 + C=CC(=O)N1CCN(c2nc(OCC3CCCN3C)nc3c2CCN(c2cccc4cccc(C)c24)C3)CC1CC#N | < 3.16 nM | < 3.16 nM | < 3.16 nM | < 3.16 nM | < 3.16 nM | 22.2% | 26.6% | 27.6% | 31.4% | 18.6% | 20% | 22.1% | 25.3% | 16.7% | 22.5% | 23.7% | 27.7% | 22.1% | 21.8% | 26% | viability, T/C (second compound 0.0316 µM, first compound 0.00316 µM): 36.1%; viability, T/C [1]: 32.4%; viability, T/C (second compound 0.1 µM, first compound 0.00316 µM): 32.8%; viability, T/C [7]: 24.7%; viability, T/C (second compound 0.316 µM, first compound 0.00316 µM): 23.9%; viability, T/C [13]: 25.3%; viability, T/C (second compound 1 µM, first compound 0.00316 µM): 27.7%; viability, T/C [19]: 20.6%; viability, T/C [23]: 33.5%; viability, T/C (second compound 3.16 µM, first compound 0.00316 µM): 28%; viability, T/C [25]: 30.7%; viability, T/C [26]: 25.6%; viability, T/C [27]: 29%; viability, T/C [28]: 31.4%; viability, T/C [29]: 29.4%
CCNC(=O)CC1N=C(c2ccc(Cl)cc2)c2cc(OC)ccc2-n2c(C)nnc21 (stereo not given) + C=CC(=O)N1CCN(c2nc(OCC3CCCN3C)nc3c2CCN(c2cccc4cccc(C)c24)C3)CC1CC#N | 51.2 nM | < 31.6 nM | 2000 nM | < 31.6 nM | < 31.6 nM | 48.4% | 52.5% | 36.7% | 25.7% | 46.5% | 41.5% | 25.6% | 19.4% | 99.2% | 109% | 72.8% | 60.9% | 35.7% | 32.3% | 24.6% | viability, T/C [6]: 17.2%; viability, T/C [31]: 16.6%; viability, T/C [12]: 15.3%; viability, T/C [32]: 12.9%; viability, T/C [18]: 46.8%; viability, T/C [33]: 40.2%; viability, T/C [23]: 17.5%; viability, T/C [24]: 14.6%; viability, T/C [34]: 12.8%; viability, T/C [26]: 41.3%; viability, T/C [27]: 32.7%; viability, T/C [28]: 22.6%; viability, T/C [29]: 13.3%; viability, T/C [30]: 9.07%; viability, T/C [35]: 7.07%
Cn1nccc1Nc1nccc(-c2cc3c(s2)C(C)(C)N(CCN2CCOCC2)C3=O)n1 + C=CC(=O)N1CCN(c2nc(OCC3CCCN3C)nc3c2CCN(c2cccc4cccc(C)c24)C3)CC1CC#N | < 31.6 nM | < 31.6 nM | < 31.6 nM | < 31.6 nM | < 31.6 nM | 34.5% | 28.7% | 39.7% | 19.2% | 26.8% | 31.8% | 28% | 23.3% | 33.2% | 25.8% | 21.2% | 35.5% | 29.6% | 26.9% | 33.1% | viability, T/C [6]: 19.9%; viability, T/C [31]: 19.7%; viability, T/C [12]: 17.8%; viability, T/C [32]: 21.1%; viability, T/C [18]: 16.8%; viability, T/C [33]: 19.1%; viability, T/C [23]: 26.5%; viability, T/C [24]: 15.3%; viability, T/C [34]: 19.4%; viability, T/C [26]: 29.3%; viability, T/C [27]: 29.1%; viability, T/C [28]: 28.1%; viability, T/C [29]: 23.2%; viability, T/C [30]: 21.7%; viability, T/C [35]: 24.4%
